Measured values published in US20130310256A1, “HERBICIDAL COMPOSITIONS COMPRISING 4-AMINO-3-CHLORO-5-FLUORO-6-(4-CHLORO-2-FLUORO-3-METHOXYPHENYL) PYRIDINE-2-CARBOXYLIC ACID OR A DERIVATIVE THEREOF AND VLCFA AND LIPID SYNTHESIS INHIBITING HERBICIDES” (DOW AGROSCIENCES LLC, priority 2008, published 2013).

Assays:
ECHCG [1] = assay: Example I: postemergence foliar-applied weed control, greenhouse; format: in vivo, Echinochloa crus-galli (L.) Beauv. (barnyardgrass); settings: 20 DAA
Excerpt: (§1) Seeds or nutlets of the desired test plant species were planted in a soil matrix prepared by mixing a loam or sandy loam soil (e.g., 28.6 percent silt, 18.8 percent clay, and 52.6 percent sand, with a pH of about 5.8 and an organic matter content of about 1.8 percent) and calcareous grit in an 80 to 20 ratio. The soil matrix was contained in plastic pots with a volume of 1 quart and a surface area of 83.6 square centimeters (cm^2). When required to ensure good germination and healthy plants, a fungicide treatment and/or other chemical or physical treatment was applied. The plants were grown for 8-22 days in a greenhouse with an approximate 14 hr photoperiod which was maintained at about 29° C. during the day and 26° C. during the night. Nutrients (Peters Excel® 15-5-15 5-Ca 2-Mg and iron chelate) were applied in the irrigation solution as needed and water was added on a regular basis. Supplemental lighting was provided with overhead metal halide 1000-Watt lamps as necessary. The plants were employed for testing when they reached the first through fourth true leaf stage.
(§2) Treatments consisted of the acid or esters of 4-amino-3-chloro-5-fluoro-6-(4-chloro-2-fluoro-3-methoxy-phenyl)pyridine-2-carboxylic acid (Compound A), each formulated as an SC (suspension concentrate), and various herbicidal components alone and in combination. Forms of compound A were applied on an acid equivalent basis.
(§3) Other herbicidal components were applied on an active ingredient basis and included very long chain fatty acid (VLCFA) synthesis-inhibiting and fatty acid/lipid synthesis-inhibiting herbicides acetochlor (technical grade material), acetochlor+dichlormid formulated as Topnotch®, pretilachlor (technical grade material), butachlor formulated as Butachlor EC, fentrazamide formulated as Fentrazamide EC, thiobencarb formulated as Bolero® 8EC, cafenstrole formulated as Himeadow® WP or Lapost® Flowable, benfuresate formulated as Full Shot®, dimethenamid-P formulated as Outlook®, indanofan (technical grade material), flufenacet formulated as Define® DF, mefenacet (technical grade material), S-metolachlor formulated as Dual® II Magnum, pethoxamid formulated as Successor® 600, and pyroxasulfone (technical grade material).
(§4) Treatment requirements were calculated based upon the rates being tested, the concentration of active ingredient or acid equivalent in the formulation, and a 12 mL application volume at a rate of 187 L/ha.
(§5) For treatments comprised of formulated compounds, measured amounts of compounds were placed individually in 25 mL glass vials and diluted in a volume of 1.25% (v/v) Agri-Dex® crop oil concentrated to obtain 12× stock solutions. […] Application solutions were prepared by adding an appropriate amount of each stock solution (e.g., 1 mL) and diluted to the appropriate final concentrations with the addition of 10 mL of an aqueous mixture of 1.25% (v/v) crop oil concentrate so that the final spray solutions contained 1.25+/−0.05% (v/v) crop oil concentrate.
(§6) For treatments comprised of technical compounds, weighed amounts can be placed individually in 25 mL glass vials and dissolved in a volume of 97:3 v/v acetone/DMSO to obtain 12× stock solutions. […] Application solutions can be prepared by adding an appropriate amount of each stock solution (e.g., 1 mL) and diluted to the appropriate final concentrations with the addition of 10 mL of an aqueous mixture of 1.5% (v/v) crop oil concentrate so that the final spray solutions contain 1.25% (v/v) crop oil concentrate. When technical materials are used, the concentrated stock solutions can be added to the spray solutions so that the final acetone and DMSO concentrations of the application solutions are […], respectively. […]

BRAPP = assay: Example I: postemergence foliar-applied weed control, direct seeded rice weeds, greenhouse; format: in vivo; settings: 20 DAA
Excerpt: as §1, §2, §3, §4, §5, §6

ECHOR = assay: Example II: in-water applied weed control, transplanted paddy rice, greenhouse; format: in vivo, Echinochloa oryzoides (Ard.) Fritsch (early watergrass); settings: for Visual Weed Control ECHOR Obs: 19 DAA
Experimental: (§7) Weed seeds or nutlets of the desired test plant species were planted in puddled soil (mud) prepared by mixing a shredded, non-sterilized mineral soil (50.5 percent silt, 25.5 percent clay, and 24 percent sand, with a pH of about 7.6 and an organic matter content of about 2.9 percent) and water at a 1:1 volumetric ratio. The prepared mud was dispensed in 365 mL aliquots into 16-ounce (oz.) non-perforated plastic pots with a surface area of 86.59 square centimeters (cm^2) leaving a headspace of 3 centimeters (cm) in each pot. Mud was allowed to dry overnight prior to planting or transplanting. Rice seeds were planted in Sun Gro MetroMix® 306 planting mixture, which typically has a pH of 6.0 to 6.8 and an organic matter content of about 30 percent, in plastic plug trays. Seedlings at the second or third leaf stage of growth were transplanted into 840 mL of mud contained in 32-oz. non-perforated plastic pots with a surface area of 86.59 cm^2 4 days prior to herbicide application. The paddy was created by filling the headspace of the pots with 2.5 to 3 cm of water. When required to ensure good germination and healthy plants, a fungicide treatment and/or other chemical or physical treatment was applied. The plants were grown for 4-22 days in a greenhouse with an approximate 14 hr photoperiod which was maintained at about 29′C during the day and 26° C. during the night. Nutrients were added as Osmocote® (19:6:12, N:P:K+ minor nutrients) at 2 g per 16-oz. pot and 4 g per 32-oz. pot. Water was added on a regular basis to maintain the paddy flood, and supplemental lighting was provided with overhead metal halide 1000-Watt lamps as necessary. The plants were employed for testing when they reached the first through fourth true leaf stage.
as §2, with “(compound A)” for “(Compound A),”, “concentrate)” for “concentrate),”
(§8) The herbicidal components were applied on an active ingredient basis and included very long chain fatty acid (VLCFA) synthesis-inhibiting and fatty acid/lipid synthesis-inhibiting herbicides acetochlor (technical grade material), acetochlor+dichlormid formulateded as Topnotch®, pretilachlor (technical grade material), butachlor formulated as Butachlor EC, fentrazamide formulated as Fentrazamide EC, thiobencarb formulated as Bolero® 8EC, cafenstrole formulated as Himeadow® WP or Lapost® Flowable, benfuresate formulated as Full Shot®, anilofos (technical grade material), mefenacet (technical grade material), molinate (technical grade material), and thenylchlor (technical grade material).
(§9) Treatment requirements for each compound or herbicidal component were calculated based upon the rates being tested, the concentration of active ingredient or acid equivalent in the formulation, an application volume of 2 mL per component per pot, and an application area of 86.59 cm^2 per pot.
(§10) For formulated compounds, a measured amount was placed in an individual 100 or 200 mL glass vial and was dissolved in a volume of 1.25% (v/v) Agri-Dex® crop oil concentrate to obtain application solutions.
(§11) For technical grade compounds, a weighed amount was placed in an individual 100 to 200 mL glass vial and was dissolved in a volume of acetone to obtain concentrated stock solutions. […] The concentrated stock solutions obtained were diluted with an equivalent volume of an aqueous mixture containing 2.5% (v/v) crop oil concentrate so that the final application solutions contained 1.25% (v/v) crop oil concentrate.
(§12) Applications were made by injecting with a pipetter appropriate amounts of the application solutions, individually and sequentially, into the aqueous layer of the paddy. Control plants were treated in the same manner with the solvent blank. […]

LEFCH = assay: Example I: postemergence foliar-applied weed control, greenhouse; format: in vivo, Leptochloa chinensis (L.) Nees (Chinese sprangletop); settings: 20 DAA
Excerpt: as §1, §2, §3, §4, §5, §6

ECHCO = assay: as above; format: in vivo, Echinochloa colona (L.) Link (junglerice); settings: 20 DAA
Excerpt: as §1, §2, §3, §4, §5, §6

DIGSA = assay: as above; format: in vivo, Digitaria sanguinalis (L.) Scop. (large crabgrass); settings: 20 DAA
Excerpt: as §1, §2, §3, §4, §5, §6

ECHCG [2] = assay: Example II: in-water applied weed control, transplanted paddy rice, greenhouse; format: in vivo, Echinochloa crus-galli (L.) Beauv. (barnyardgrass); settings: 100 gai/ha
Experimental: as §7
as §2, with “(compound A)” for “(Compound A),”, “concentrate)” for “concentrate),”
as §8, §9, §10, §11, §12

CYPRO = assay: as above; format: in vivo, Cyperus rotundus L. (purple nutsedge); settings: for Visual Weed Control CYPRO Obs: 19 DAA
Experimental: as §7
as §2, with “(compound A)” for “(Compound A),”, “concentrate)” for “concentrate),”
as §8, §9, §10, §11, §12

FIMMI = assay: as above; format: in vivo, Fimbristylis miliacea (L.) Vahl (globe fringerush); settings: for Visual Weed Control FIMMI Obs: 19 DAA
Experimental: as §7
as §2, with “(compound A)” for “(Compound A),”, “concentrate)” for “concentrate),”
as §8, §9, §10, §11, §12

CCN(C(=O)n1nnn(-c2ccccc2Cl)c1=O)C1CCCCC1 [Fentrazamide, 4-(2-chlorophenyl)-N-cyclohexyl-N-ethyl-4,5-dihydro-5-oxo-1H-tetrazole-1-carboxamide]
Visual Weed Control Obs (ECHCG [1]; 16.88 gai/ha): 0% | Visual Weed Control Obs (ECHCG [1]; 33.75 gai/ha): 0% | Visual Weed Control Obs (ECHCG [1]; 67.5 gai/ha): 20% | Visual Weed Control Obs (ECHCG [1]; 75 gai/ha): 0% | Visual Weed Control Obs (ECHCG [1]; 150 gai/ha): 5% | Visual Weed Control Obs (ECHCG [1]; 300 gai/ha): 13% | Visual Weed Control Obs (BRAPP; 16.88 gai/ha): 0% | Visual Weed Control Obs (BRAPP; 33.75 gai/ha): 0% | Visual Weed Control Obs (BRAPP; 67.5 gai/ha): 55% | Visual Weed Control (%) - 21 DAA ECHOR Obs (ECHOR; 50 gai/ha): 50% | Visual Weed Control Obs (LEFCH; 33.75 gai/ha): 0% | Visual Weed Control Obs (LEFCH; 67.5 gai/ha): 0% | Visual Weed Control Obs (ECHCO; 16.88 gai/ha): 0% | Visual Weed Control Obs (ECHCO; 33.75 gai/ha): 15% | Visual Weed Control Obs (ECHCO; 67.5 gai/ha): 10% | Visual Weed Control Obs (DIGSA; 33.75 gai/ha): 0% | Visual Weed Control Obs (DIGSA; 67.5 gai/ha): 30%

S-[2-[(4-chlorophenyl)(1-methylethyl)amino]-2-oxoethyl]O,O-dimethyl phosphorodithioate [Anilofos]
Visual Weed Control ECHCG Obs (ECHCG [2]; 19 DAA): 20% | Visual Weed Control ECHOR Obs (ECHOR; 100 gai/ha): 40% | Visual Weed Control ECHOR Obs (ECHOR; 200 gai/ha): 80% | Visual Weed Control CYPRO Obs (CYPRO; 100 gai/ha): 0% | Visual Weed Control CYPRO Obs (CYPRO; 200 gai/ha): 0% | Visual Weed Control CYPRO Obs (CYPRO; 400 gai/ha): 0% | Visual Weed Control FIMMI Obs (FIMMI; 100 gai/ha): 0% | Visual Weed Control FIMMI Obs (FIMMI; 200 gai/ha): 0% | Visual Weed Control FIMMI Obs (FIMMI; 400 gai/ha): 10%

CCOCN(C(=O)CCl)c1c(C)cccc1CC [Acetochlor, 2-chloro-N-(ethoxymethyl)-N-(2-ethyl-6-methylphenyl)acetamide]
Visual Weed Control Obs (ECHCG [1]; 50 gai/ha): 0% | Visual Weed Control Obs (ECHCG [1]; 100 gai/ha): 10% | Visual Weed Control (%) - 22 DAA ECHCG Obs (ECHCG [2]): 65% | Visual Weed Control Obs (BRAPP; 100 gai/ha): 20% | Visual Weed Control Obs (BRAPP; 200 gai/ha): 30% | Visual Weed Control (%) - 20 DAA ECHOR Obs (ECHOR; 100 gai/ha): 80% | Visual Weed Control (%) - 20 DAA CYPRO Obs (CYPRO; 100 gai/ha): 20% | Visual Weed Control (%) - 20 DAA CYPRO Obs (CYPRO; 200 gai/ha): 75% | Visual Weed Control Obs (DIGSA; 100 gai/ha): 20% | Visual Weed Control Obs (DIGSA; 200 gai/ha): 20% | Visual Weed Control (%) - 20 DAA FIMMI Obs (FIMMI; 100 gai/ha): 80% | Visual Weed Control (%) - 20 DAA FIMMI Obs (FIMMI; 200 gai/ha): 20%
